This experiment has as its system Mycobacterium tuberculosis non-replicating, growth inhibition. As to the kind of experiment: growth inhibition of non-replicating M. tuberculosis (AID 488890).

Results filed as inconclusive are left out. The source made the active and inactive calls. How the calls were made is not given here.

As usually defined, the IC50 is the concentration at which inhibition is half-maximal. Regarding `CC(C)(c1ccccc1)c1ccc(OCC(O)CNC2CCN(Cc3ccccc3)CC2)cc1` (stereo not given), the IC50 is 5.9 µM.

On to `Cc1ccc(C(=O)N/N=C/c2ccc([N+](=O)[O-])s2)cc1`, for which the 50% inhibitory concentration (IC50) was 2.14 µM.

For `O=C(C/C=N\OCc1ccc([N+](=O)[O-])cc1)Nc1ccccc1`, the IC50 was 4.57 µM.

On to `O=c1c2ccccc2sn1-c1ccccc1`, for which the half-maximal inhibitory concentration (IC50) is 6.8 µM.

With `CCOC(=O)Cc1csc(NC(=O)c2c(O)c3ccccc3n(CCC(C)C)c2=O)n1`, the concentration for half-maximal inhibition (IC50) was 1.77 µM.

As to `NC(=O)c1ccc(N=Cc2ccc([N+](=O)[O-])s2)cc1`, the IC50 was 11.8 µM (inactive).

On to `COc1ccc(C(=O)OCn2nnc3ccccc3c2=O)cc1[N+](=O)[O-]`, for which the IC50 was 15.8 µM (inactive).

Turning to `Cc1nc2ccc(OC(=O)c3ccccc3)cc2s1`, the IC50 is 20.9 µM (inactive).

With `O=C1NC(=O)N(CCc2ccc(F)cc2)C(=O)/C1=C/C=C/c1ccccc1`, the IC50 is 5.37 µM.

For `C/C(=N\Nc1ccc(Cl)cc1)c1c(O)cc(C)oc1=O`, the IC50 is 3.61 µM.

As to `Cc1ccccc1C(=O)NN1CC(C(=O)OCc2ccc(Cl)c(Cl)c2)CC1=O` (stereo not given), the IC50 is 14.1 µM (inactive).

`CCCNC(=O)COC(=O)c1cc2c(=O)n3ccccc3nc2s1`: the IC50 is 23.6 µM (inactive).

Take `Cc1ccc(C(=O)N2N=C(CC(C)C)CC2(O)C(F)(F)F)o1` (stereo not given): the IC50 was 6.3 µM.

With `O=C(Nc1cccc(Cl)c1N1CCCC1)c1ccc([N+](=O)[O-])o1`, the IC50 is 12 µM (inactive).

Regarding `Cc1nn(-c2nc3ccccc3[nH]2)c(N)c1-c1ccc(Cl)cc1`, the IC50 is 4.88 µM.

Turning to `CC1Cc2ccccc2N1C(=O)COC(=O)c1ccc(Cl)nc1` (stereo not given), the IC50 is 18.5 µM (inactive).

In the case of `CCOCCOC(=O)COc1ccc2c(-c3ccccc3)cc(=O)oc2c1`, the 50% inhibitory concentration (IC50) was 0.98 µM.

On to `COc1ccc2[nH]c3c(C)c4ccncc4c(C)c3c2c1`, for which the IC50 is 0.59 µM.

In the case of `CC1=NNC(=O)/C1=C\c1cn(-c2ccccc2)nc1-c1cccs1`, the half-maximal inhibitory concentration (IC50) is 4.96 µM.

As to `CCC(C)c1ccc(O)c(/C=N/O)c1` (stereo not given), the half-maximal inhibitory concentration (IC50) is 2.43 µM.

For the compound `Cc1cccc(OC(=O)c2ccc3nccnc3c2)c1`, the IC50 is 7.79 µM.

`CCOc1ccc(C(=O)C(CN2CCOCC2)c2ccccc2)cc1` (stereo not given): the IC50 was 3.62 µM.

On to `O=C(NCc1cccs1)c1ccc(Br)o1`, for which the IC50 was 3.37 µM.

Turning to `Cc1ccc(/C=N/NC(=O)c2ccncc2)o1`, the IC50 was 2.07 µM.

Regarding `CCOc1cc(CNCCO)cc(Br)c1OCc1ccccc1Cl`, the IC50 was 6.17 µM.

With `Cc1ccc(NC(=O)COc2ccc3c(c2)CCC3)nc1`, the IC50 is 6.66 µM.

As to `Cc1cc(NC(=O)c2cc([N+](=O)[O-])cc([N+](=O)[O-])c2)no1`, the IC50 was 17.3 µM (inactive).

For the compound `O=C(N/N=C/c1ccc([N+](=O)[O-])o1)c1sc2ccccc2c1Cl`, the IC50 is 2.9 µM.

As for `Cc1cc(NC(=O)COC(=O)COc2ccc(C(=O)c3ccccc3)cc2)no1`, the IC50 is 18.3 µM (inactive).

`CN1CCN(c2ccc(NC(=O)c3ccc(-c4ccc(Br)cc4)o3)cc2)CC1`: the concentration for half-maximal inhibition (IC50) is 4.06 µM.

For the compound `CCC(=O)N1CCN(c2cc3c(cc2F)c(=O)c(C(=O)O)cn3CC)CC1`, the half-inhibitory concentration (IC50) was 7.67 µM.

For the compound `CCOC(=O)Nc1ccc2c(c1)N(C(=O)CCN1CCOCC1)c1ccccc1S2=O` (stereo not given), the IC50 is 3.62 µM.

Consider `Cc1ccc(CCC(=O)Nc2ccc(C)c(C)c2)o1`, for which the IC50 is 8.63 µM.

For the compound `CCOC(=O)c1ccc(-c2ccc(C(=O)Nc3cccnc3)o2)cc1`, the IC50 is 0.84 µM.

For the compound `Cc1ccc(C2=N/C(=C\c3cccnc3)C(=O)O2)cc1`, the half-inhibitory concentration (IC50) is 6.58 µM.

With `COc1ccc2cc(C(=O)C3CCCN(Cc4ccccn4)C3)ccc2c1` (stereo not given), the half-maximal inhibitory concentration (IC50) is 6.59 µM.

Consider `Cn1c(=O)c(Oc2ccc(Cl)cc2)c(O)c2ccccc21`, for which the IC50 is 11.1 µM (inactive).

Take `O=C(Nc1ccc([N+](=O)[O-])cc1)C1COc2ccccc2O1` (stereo not given): the IC50 was 10.2 µM (inactive).

On to `CCCC(=O)N1CCC(Cc2ccccc2)CC1`, for which the IC50 was 3.47 µM.

For `C=C(C)C1Cc2c(C)nn(-c3nc(C)cc(C)n3)c2C1` (stereo not given), the IC50 was 11.6 µM (inactive).

As for `O=C(Nc1nnc(-c2ccc3c(c2)CCCC3)o1)c1c(F)cccc1F`, the IC50 is 3.12 µM.

On to `CSc1nn(-c2ccc(C(=O)OCC(=O)NC(=O)NC(C)C)cc2)c(=S)s1`, for which the IC50 was 16 µM (inactive).

As for `CCCCCOc1ccc(CSC2=NCCN2)cc1[N+](=O)[O-]`, the IC50 is 23.4 µM (inactive).

In the case of `CCN(CC)S(=O)(=O)c1ccc(C(=O)OCn2nnc3ccccc3c2=O)cc1`, the IC50 was 15.4 µM (inactive).

For `O=C(N/N=C/c1ccc([N+](=O)[O-])o1)c1cc2ccccc2o1`, the IC50 was 0.46 µM.

Take `O=C(NN=C1C2CC3CC1CC(Cl)(C3)C2)c1cccs1`: the IC50 is 23.7 µM (inactive).

Regarding `CC/C(=C\c1oc2cc3ccccc3cc2[n+]1CC)Nc1ccccc1`, the half-maximal inhibitory concentration (IC50) is 3.14 µM.

For `COc1ccc(-c2nc(C=O)cs2)cc1`, the IC50 was 5.84 µM.

With `COC(=O)/C(=C1/Oc2cc(C)oc(=O)c2S1)C(F)(F)F`, the half-inhibitory concentration (IC50) is < 0.1 µM.

Consider `COc1ccc(-c2noc(-c3cc4ccccc4oc3=O)n2)cc1`, for which the IC50 was 5.06 µM.

`CCCn1nnnc1NCc1ccc(C(C)C)cc1`: the IC50 was 5.89 µM.

As to `O=[N+]([O-])c1ccc(CN2CCN(c3ccc(F)cc3)CC2)o1`, the IC50 was 0.45 µM.

Regarding `CC(=O)OCCNc1cc(Sc2nc3ccccc3[nH]2)c2nonc2c1[N+](=O)[O-]`, the IC50 was 2.41 µM.

Turning to `O=[N+]([O-])c1ccc(N2CCN(Cc3ccc([N+](=O)[O-])o3)CC2)cc1`, the IC50 is < 0.1 µM.

For `COc1ccc2cc(C(=O)NCc3ccccc3CN3CCCC3)ccc2c1`, the IC50 was 17.7 µM (inactive).

Regarding `O=C(C#Cc1ccccc1)c1ccco1`, the half-inhibitory concentration (IC50) was 0.43 µM.

In the case of `CN(O)/C=c1/ccc2c(n1)C(=O)C=CC=2`, the IC50 is 1.92 µM.

As for `O=[N+]([O-])c1cc2oc3c(c2c(C=NCc2ccccc2)c1O)CCCC3`, the concentration for half-maximal inhibition (IC50) was 2.89 µM.

Take `CSc1nc(=S)cc(C)[nH]1`: the half-maximal inhibitory concentration (IC50) was 6.23 µM.

As to `O=C(c1ccccc1[N+](=O)[O-])N1N=C(c2ccccc2)CC1(O)C(F)(F)F` (stereo not given), the 50% inhibitory concentration (IC50) was 3.92 µM.

For `NC(N)=N/N=C/c1cn(-c2ccccc2)nc1-c1cccs1`, the 50% inhibitory concentration (IC50) was 6.07 µM.

As to `CCCOc1ccc(N2C(=O)CC(N3CCCC(C(=O)N4CCCC4)C3)C2=O)cc1` (stereo not given), the IC50 is 30.1 µM (inactive).

On to `COC(=O)COc1cccc(/C=N/NC(=O)CCSc2ccccc2)c1`, for which the 50% inhibitory concentration (IC50) is 9.71 µM.

Turning to `COc1cc2c(cc1OC)CN(C(=O)c1ccc([N+](=O)[O-])o1)CC2`, the IC50 is 1.29 µM.

Take `O=C1OC(/C=C/c2ccccc2)=NC/1=C\c1cccnc1`: the IC50 is 13 µM (inactive).

For `CCOC(=O)Cc1c(C)nc2c(-c3ccc(Cl)cc3)c[nH]n2c1=O`, the IC50 is 3.93 µM.

Regarding `CC(=O)Oc1ccc(N2C(=O)c3cccc4c([N+](=O)[O-])ccc(c34)C2=O)cc1`, the concentration for half-maximal inhibition (IC50) was 0.37 µM.

For `Cc1ccc(-c2nc3ccccn3c2Nc2ccccc2)o1`, the IC50 was 8.4 µM.

Regarding `COc1cccc2cc(-c3nc4ccccc4o3)c(=O)oc12`, the concentration for half-maximal inhibition (IC50) is 7.31 µM.

Turning to `O=[N+]([O-])c1ccc(/C=N/n2c(CO)nc3ccccc32)s1`, the half-maximal inhibitory concentration (IC50) is 1.18 µM.

Consider `O=C(OCC(=O)N1CCc2ccccc2C1)c1cccc([N+](=O)[O-])c1`, for which the IC50 was 9.6 µM.

For `CC(Cc1cccs1)NC(=O)c1cccc(Cl)c1` (stereo not given), the 50% inhibitory concentration (IC50) is 8.14 µM.

Regarding `COc1ccccc1NC(=O)c1cnc(SC)nc1`, the IC50 is 22.3 µM (inactive).

Turning to `O=C(CCC(=O)Nc1ccc(Cl)cc1Cl)N/N=C/c1ccc([N+](=O)[O-])o1`, the IC50 is 2.18 µM.

For the compound `CCOc1c(OC(C)=O)ccc(/C=C2\N=C(SCC)SC2=O)c1[N+](=O)[O-]`, the IC50 is 10.2 µM (inactive).

As for `CC(/C=C\C=C\c1ccccc1)=N\NC(=O)c1cncc(Br)c1`, the IC50 is 31.2 µM (inactive).

With `O=C(Cc1ccc([N+](=O)[O-])cc1)N/N=C/c1ccc([N+](=O)[O-])o1`, the IC50 was 21.8 µM (inactive).

Regarding `Clc1ccccc1OCc1nnc(-c2ccccc2)o1`, the half-maximal inhibitory concentration (IC50) is 4.35 µM.

`CC(C)(C)c1ccc(NC(=O)COc2ccc(-n3ccnc3)cc2)cc1`: the IC50 was 30.2 µM (inactive).

For `CCCCc1ccc(NS(=O)(=O)c2c(C)n(C)c(=O)n(C)c2=O)cc1`, the IC50 was 27.1 µM (inactive).

Regarding `Clc1cccc(-c2ccc(CNCc3ccccn3)o2)c1`, the half-maximal inhibitory concentration (IC50) is 6.87 µM.

On to `Cc1c(CN(C)C)c2c(n1Cc1ccccc1)C(=O)c1ccc(Br)cc1-2`, for which the IC50 was 16 µM (inactive).

As for `Cc1nc2ccc(Cl)cc2nc(C)/c1=N\O`, the IC50 was 14.4 µM (inactive).

`CC(C)(C)C(=O)COc1ccccc1[N+](=O)[O-]`: the IC50 was 17.6 µM (inactive).

As to `CCC1(O)CC(c2ccccc2)=NN1C(=O)c1ccccc1F` (stereo not given), the IC50 is 3.45 µM.

Turning to `CCCC(O)(CCC)C(=O)NNc1ccc(C)cc1`, the IC50 is 5.94 µM.

In the case of `NC(=O)N/N=C/c1ccccc1OC(=O)c1cc2ccccc2oc1=O`, the 50% inhibitory concentration (IC50) is 3.77 µM.

For the compound `CCc1ccc(NC(=O)C(=O)NNC(=O)COc2cccc(OC)c2)cc1`, the half-maximal inhibitory concentration (IC50) was 2.49 µM.

Regarding `CC(C)OC(=O)c1c2c(n3ccccc13)C(=O)c1ccccc1C2=O`, the IC50 is 9.5 µM.

Turning to `O=C(Nc1nnc(-c2ccco2)o1)c1ccc([N+](=O)[O-])s1`, the IC50 was 22.4 µM (inactive).

Consider `Cc1cc(OCCOCCNCc2ccccc2)ccc1C(C)C`, for which the IC50 was 15.1 µM (inactive).

Consider `CN(/N=C/c1ccc([N+](=O)[O-])o1)c1ccccc1`, for which the IC50 is 13.4 µM (inactive).

Turning to `CC(C)(C)c1ccc(S(=O)(=O)NNC(=O)c2cc3ccccc3[nH]2)cc1`, the IC50 was > 25 µM (inactive).

Regarding `CC(=O)c1ccc(Sc2nnnn2-c2ccccc2)c([N+](=O)[O-])c1`, the IC50 is 19.4 µM (inactive).

Regarding `CC(C)c1nnc(NC(=O)c2sc3ccccc3c2Cl)s1`, the half-inhibitory concentration (IC50) was 9.84 µM.

In the case of `NC(=O)c1ccc(-c2ccc(Br)cc2)o1`, the IC50 is 1.93 µM.

For the compound `Cc1ccc(C(=O)Oc2cccc(-n3cnnn3)c2)cc1`, the IC50 was 25.3 µM (inactive).

Consider `CCOC(=O)c1cc([N+](=O)[O-])c([N+](=O)[O-])cc1NC(C)=O`, for which the IC50 is 2.44 µM.

`Oc1oc(-c2ccco2)nc1C=Nc1cccc(Cl)c1`: the IC50 was 7.88 µM.

For the compound `O=C(CCC1CCCC1)c1c(O)c2ccccc2oc1=O`, the IC50 was 1.93 µM.
